Data reported in patent publication US20160175225A1, “Peptides and Their Use in the Treatment of Skin” (AVON PRODUCTS, INC., priority 2014, published 2016).

Tests used:
[1] = test system: Human dermal fibroblast cells; test: Pro-collagen I secretion by human dermal fibroblasts (HTRF human pro-collagen I kit); format: cell-based; conditions: percent change relative to vehicle control, 48 h
Method: (§1) Human dermal fibroblast cells were grown in a 96 well plate in DMEM media (available from Corning, N.Y.) supplemented with 10% Fetal Bovine Serum (FBS) and L-glutamine (0.07×10^5 cells/plate). After reaching about 75% confluence, cells were transferred into DMEM media without FBS and incubated for 4-6 hours. Next, cells were treated with a peptide at 0.00001%, 0.0001%, 0.001% final concentration in DMEM media without FBS for 48 h. After treatment the media were collected, and cell viability was measured using MTT. Amount of collagen secreted was tested in the media using HTRF human pro-collagen I kit (available from Cisbio Inc., Bedford, Mass.). Amount of secreted Hyaluronic Acid (HA) was tested in the media using HA Elisa kit (available from Corgenix, Broomfield, Colo.).
(§2) Results are summarized in Table 5 below as percent change of pro-collagen I and/or HA production relative to vehicle control using the following keys with the peptide concentration provided in parentheses: […]

[2] = test system: Human dermal fibroblast cells; test: Hyaluronic acid (HA) secretion by human dermal fibroblasts (HA Elisa kit); format: cell-based; conditions: percent change relative to vehicle control, 48 h
Method: as §1, §2

[3] = concentration not given (tested at 0.00001%, 0.0001%, 0.001%)

Row | Substance | Increase in Pro-Collagen I Production [1, 3] | Increase in HA Production ([2]; peptide concentration 0.001%) | Increase in HA Production [2, 3] | further results
1 | Ala-Glu-Cys-Lys (AECK) [peptide derived from PDGF] | 0 (0: <10%) | +++ (0.001%) (+++:90-150%) |  | 
2 | EASAEPE | 0 (0: <10%) |  | 0 (0: <20%) | 
3 | GDALQPE | 0 (0: <10%) |  | 0 (0: <20%) | 
4 | IFGGTVYRS [Ile-Phe-Gly-Gly-Thr-Val-Tyr-Arg-Ser, peptide derived from CTGF] |  | ++ (0.001%) (++:50-90%) |  | Increase in Pro-Collagen I Production ([1]; peptide concentration 0.001%): + (0.001%) (+: 10-30%)
5 | LENTKRS | 0 (0: <10%) |  | 0 (0: <20%) | 
6 | Leu-Arg-Leu-Lys (LRLK) [peptide derived from GDF11 and TGFβ] | 0 (0: <10%) | + (0.001%) (+: 20-50%) |  | 
7 | Met-Val-Val (MVV) [peptide derived from GDF11] | 0 (0: <10%) |  |  | Increase in HA Production ([2]; peptide concentration 0.0001%): + (0.0001%) (+: 20-50%)
8 | NRNV: peptide sequence NRNV, origin PDGF, tested in Table 5 | 0 (0: <10%) |  | 0 (0: <20%) | 
9 | QILSKLRL [Gln-Ile-Leu-Ser-Lys-Leu-Arg-Leu, peptide derived from GDF11 and TGFβ] |  |  | 0 (0: <20%) | Increase in Pro-Collagen I Production ([1]; peptide concentration 0.001%): + (0.001%) (+: 10-30%)
10 | QPED: peptide sequence QPED, origin GDF11, tested in Table 5 | 0 (0: <10%) |  | 0 (0: <20%) | 
11 | RKIE: peptide sequence RKIE, origin PDGF, tested in Table 5 | 0 (0: <10%) |  | 0 (0: <20%) | 
12 | RTPKISKPIKFELSG [Arg-Thr-Pro-Lys-Ile-Ser-Lys-Pro-Ile-Lys-Phe-Glu-Leu-Ser-Gly, peptide derived from CTGF] | 0 (0: <10%) | + (0.001%) (+: 20-50%) |  | 
13 | TAKDGAP [Thr-Ala-Lys-Asp-Gly-Ala-Pro, peptide derived from CTGF] |  | ++ (0.001%) (++:50-90%) |  | Increase in Pro-Collagen I Production ([1]; peptide concentration 0.00001%): + (0.00001%) (+: 10-30%)
